Results on two molecules are retold here after patent US20250114369A1, “COMPOUNDS AND METHODS FOR TREATMENT OF VIRAL INFECTIONS” (Gilead Sciences, Inc., priority 2023, published 2025).

Series [1] can be described thus: in vitro. In kind it is cell-based. The note with it: human.
The nature of the next series: physchem. The class given is physicochemical. The note with it: pH 7, aqueous buffer, thermodynamic from solid. How it is done: The aqueous solubility of compounds over a time of 24 hours was assessed. Solubility was determined at ambient temperature in a 50 mM phosphate buffered pH7 solution with 150 mM NaCl (to achieve isotonicity). Solids were added to the buffered solution in 1.5-mL Eppendorf tubes, vortexed for 1 minute, then agitated for 24 hours in an Eppendorf ThermoMixer C. To determine concentration in solution, the suspensions were centrifuged for 15 min at 15,000 rpm. Supernatants were diluted to a volume of 1 mL with 30:70 v/v acetonitrile:water. All diluted supernatants were analyzed by UPLC using a Waters Acquity UPLC with a PDA UV detector.

The nature of series [2]: in vitro. The class given is in vitro ADME. The note with it: human, s9, pH 7.4. Summed up:
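Intestinal S9 stability: compounds at 2 μM final in PMSF-free intestinal S9 (1.0 mg/mL protein, 100 mM PBS pH 7.4), duplicates, GS-7340 as positive control substrate. Samples at 0, 10, 20, 30, 60 and 120 min quenched; analyte quantified by LC-MS (Q-Exactive) as analyte/internal standard peak area ratio.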

A short description of series [3]: in vitro. In kind it is in vitro ADME. Particulars: human, s9, pH 7.4. Here is the method: Duplicate aliquots of test compound or positive control substrate (GS-7340) were added to S9 stock diluted with 100 mM potassium phosphate buffer, pH 7.4, to obtain a protein concentration of 2.4 mg/mL. The S9 metabolic reactions were initiated by the addition of the substrates to the S9 reaction mixture to a final concentration of 2 μM. At 2, 12, 25, 45, 65 and 90 min, 25 μL aliquots of the reaction mixture were transferred to plates containing 225 μl of IS/Q solution. After quenching, the plates were centrifuged at 3000×g for 30 minutes, and 150 μL aliquots of each supernatant were diluted with 150 μL water. Aliquots (10 μL) of the diluted supernatant were analyzed on a Thermo Q-Exactive mass spectrometer as described below. Quantification of test compounds and controls was performed by analyte/internal standard peak area ratio (PAR) values measured on a Thermo Q-Exactive mass spectrometer coupled to a Dionex UltiMate 3000 HPLC with a Leap Technologies HTC PAL autosampler. The column used was a Thermo Hypersil GOLD (1.9 μm particle size, 2.1×50 mm). Mobile phase A consisted of […] formic acid in water. Mobile phase B consisted of 0.1% (v/v) formic acid in acetonitrile. Elution of analytes was achieved by a series of linear gradients of acetonitrile in water containing 0.1% (v/v) formic acid. The mass spectrometer was calibrated on a weekly basis and mass tolerance of 5 ppm was used.
The source holds these as a separate data set.

Series [4] is classed as in vitro ADME. The note with it: 2 μM. The gist of the method:
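Compound added to duplicate plasma aliquots at 37 °C to 2 μM final; sampled at 0.05, 0.5, 1, 2, 3 and 4 hr and quenched with internal-standard solution. Remaining compound quantified by analyte/internal standard peak area ratio by LC-HRMS (Q-Exactive, 5 ppm mass tolerance).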

Series [5] deals with Caco-2 cells (clone C2BBel). The experiment in a line: CACO-2 permeability. In kind it is in vitro ADME. Particulars: donor pH 6.5, receiver pH 7.4; for DM Caco2 A to B: forward (A to B); for DM Caco2 B to A: reverse (B to A).
In series [6] the test system is SARS Coronavirus 2 recombinant with NanoLuc (SARS-CoV2-NLuc). The experiment in a line: organism not typed. The class given is cell-based. Particulars: 48 h.
The test system of series [7] is Respiratory syncytial virus recombinant with luciferase (RSV-Luc5). In words: microbe, parasite or virus in culture. In kind it is cell-based. Particulars: human respiratory syncytial virus, NHBE, 72 h, read-out: RSV NHBE EC50 (nM).

Converted amounts (≈) assume the structure as drawn.
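Throughout, for CC50: uninfected MT-4 cells over 4-5 days by CellTiter-Glo.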

As to `CC(=O)O[C@H]1[C@@H](OC(C)=O)[C@](C#N)(c2ccc3c(N)ncnn23)O[C@@H]1COC(=O)N1CCCCC1` [Compound 21, [(2R,3R,4R,5R)-3,4-diacetoxy-5-(4-aminopyrrolo[2,1-f][1,2,4]triazin-7-yl)-5-cyano-tetrahydrofuran-2-yl]methyl piperidine-1-carboxylate], the CC50 in “in vitro [1]” is above 50 µM. Besides, the thermodynamic solubility at 24 h in “physchem” was 370 µg/mL (≈ 761 µM). The half-life at 2 μM in the series “in vitro [2]” is 0.673 min; in “in vitro [3]”, at most 2 min. Besides, in series [4], the “STA Human Plasma 37” value is recorded as 11.334. Moreover, the “DM Caco2 A to B” value in series [5] was 3.99. The “DM Caco2 B to A” value in series [5] came to 19.68. For the same molecule, the EC50 is above 50 µM in series [6] and above 50000 nM in series [7].
For `CCOC(=O)c1cccn1C(=O)OC[C@H]1O[C@@](C#N)(c2ccc3c(N)ncnn23)[C@H](OC(C)=O)[C@@H]1OC(C)=O` [Compound 20, O1-[[(2R,3R,4R,5R)-3,4-diacetoxy-5-(4-aminopyrrolo[2,1-f][1,2,4]triazin-7-yl)-5-cyano-tetrahydrofuran-2-yl]methyl]O2-ethyl pyrrole-1,2-dicarboxylate], the 50% cytotoxic concentration (CC50) in “in vitro [1]” is above 50 µM. In the series “physchem”, this molecule showed a solubility (thermodynamic) at 24 h of 10 µg/mL (≈ 18.5 µM). Besides, the half-life at 2 μM was 0.627 min in the series “in vitro [2]” and at most 2 min in “in vitro [3]”. The “STA Human Plasma 37” value in series [4] was 67.544. For the same molecule, in series [5], the “DM Caco2 A to B” value came out at 3.16. In addition, the “DM Caco2 B to A” value in series [5] is given as 9.63. In addition, the EC50 in series [6] turned out to be 4.28 µM; in series [7], 731 nM.

What is called CC50 is the concentration that lowers cell viability or growth by half. A high value points to better tolerance by the cells. For orientation: solubility (thermodynamic) means solubility found after equilibrating the solid with the medium. The half-life is the time in which the quantity being followed falls by half. A low value points to rapid decline. The term EC50 denotes the concentration giving half of the maximal effect.
